Test results: paper PMC9833666, “Designing and identifying β-hairpin peptide macrocycles with antibiotic potential” (Science Advances, 2023)
Bridge positions count the residues as written; N and C are the ends. Peptide text beside a SMILES is read from it.

System: Escherichia coli W3110
Assay type: cell-based
Details: for Ec W3110 MIC MH: E. coli W3110, MH medium; for Ec W3110 MIC RPMI: E. coli W3110, RPMI medium

| Compound | W3110 MIC [µg/mL] | W3110 MIC MH [µg/mL] | W3110 MIC RPMI [µg/mL] | Ec W3110 MIC MH [µg/mL] | Ec W3110 MIC RPMI [µg/mL] |
| --- | --- | --- | --- | --- | --- |
| CC[C@H](C)[C@@H]1NC(=O)[C@H](CCCNC(=N)N)NC(=O)[C@H]([C@@H](C)CC)NC(=O)[C@H](CCCNC(=N)N)NC(=O)[C@@H](N)CSSC[C@@H](C(=O)O)NC(=O)[C@H](CCC(=O)O)NC(=O)[C@H](C(C)C)NC(=O)[C@H](CCC(=O)O)NC(=O)[C@H](CC(C)C)NC(=O)[C@H](CCCNC(=N)N)NC(=O)[C@H](C(C)C)NC(=O)[C@H]([C@@H](C)O)NC(=O)CNC(=O)CNC(=O)[C@H](CCCNC(=N)N)NC(=O)[C@H](CC(=O)O)NC(=O)[C@H](CC(N)=O)NC(=O)[C@H](C(C)C)NC(=O)[C@H](CC(N)=O)NC1=O [SyRC-4] (H-CRIRINVNDRGGTVRLEVEC-OH; disulfide 1-20) | >256 | – | – | – | – |
| CC[C@H](C)[C@@H]1NC(=O)[C@H](CC(=O)O)NC(=O)[C@H](C(C)C)NC(=O)[C@H](CCCCN)NC(=O)[C@H]([C@@H](C)CC)NC(=O)[C@H](CCCNC(=N)N)NC(=O)[C@@H](N)CSSC[C@@H](C(=O)O)NC(=O)[C@H](CCC(=O)O)NC(=O)[C@H](CC(C)C)NC(=O)[C@H](CCC(N)=O)NC(=O)[C@H](CC(C)C)NC(=O)[C@H](CCCNC(=N)N)NC(=O)[C@H](C(C)C)NC(=O)[C@H](CCCNC(=N)N)NC(=O)CNC(=O)[C@H](CCCNC(=N)N)NC(=O)[C@H](CCCNC(=N)N)NC(=O)[C@H](CC(=O)O)NC(=O)[C@H](CC(=O)O)NC1=O [SyRC-7] (H-CRIKVDIDDRRGRVRLQLEC-OH; disulfide 1-20) | >256 | – | – | – | – |
| CC[C@H](C)[C@@H]1NC(=O)[C@H](CCCNC(=N)N)NC(=O)[C@H](C(C)C)NC(=O)[C@@H](N)CSSC[C@@H](C(=O)O)NC(=O)[C@H](C(C)C)NC(=O)[C@H](CCC(N)=O)NC(=O)[C@H](C(C)C)NC(=O)[C@H](CO)NC(=O)[C@H](C(C)C)NC(=O)[C@H](CCCCN)NC(=O)[C@H](C(C)C)NC(=O)CNC(=O)[C@H](CCCNC(=N)N)NC(=O)[C@H](CCCNC(=N)N)NC(=O)[C@H](CCCNC(=N)N)NC(=O)[C@H](CC(N)=O)NC(=O)[C@H](CC(N)=O)NC(=O)[C@H](CC(C)C)NC(=O)[C@H](CCCNC(=N)N)NC1=O [SySA-66] (H-CVRIRLNNRRRGVKVSVQVC-OH; disulfide 1-20) | – | 128 | 32 | – | – |
| CC(C)C[C@@H]1NC(=O)[C@H](CCCNC(=N)N)NC(=O)[C@H](CCCNC(=N)N)NC(=O)[C@H](CCCNC(=N)N)NC(=O)[C@H](CCCNC(=N)N)NC(=O)[C@H](CC(N)=O)NC(=O)[C@H](CC(N)=O)NC(=O)[C@H](CC(C)C)NC(=O)[C@H](CCCNC(=N)N)NC(=O)[C@H](C(C)C)NC(=O)[C@H](CCCNC(=N)N)NC(=O)[C@H](C(C)C)NC(=O)[C@@H](N)CSSC[C@@H](C(=O)O)NC(=O)[C@H](C(C)C)NC(=O)[C@H](CCC(=O)O)NC(=O)[C@H](CC(C)C)NC(=O)[C@H](CO)NC(=O)[C@H](C(C)C)NC(=O)[C@H](CCCCN)NC1=O [SySA-16] (H-CVRVRLNNRRRRLKVSLEVC-OH; disulfide 1-20; N-terminus and C-terminus assumed) | – | 32 | 32 | 32 | 32 |
| CC[C@H](C)[C@@H]1NC(=O)[C@H](CCCNC(=N)N)NC(=O)[C@H](C(C)C)NC(=O)[C@@H](N)CSSC[C@@H](C(=O)O)NC(=O)[C@H](C(C)C)NC(=O)[C@H](CCC(=O)O)NC(=O)[C@H](CC(C)C)NC(=O)[C@H](CO)NC(=O)[C@H](C(C)C)NC(=O)[C@H](CCCCN)NC(=O)[C@H](C(C)C)NC(=O)[C@H](CCCNC(=N)N)NC(=O)[C@H](CCCNC(=N)N)NC(=O)[C@H](CCCNC(=N)N)NC(=O)[C@H](CCCNC(=N)N)NC(=O)[C@H](CC(N)=O)NC(=O)[C@H](CC(N)=O)NC(=O)[C@H](CC(C)C)NC(=O)[C@H](CCCNC(=N)N)NC1=O [SySA-37] (H-CVRIRLNNRRRRVKVSLEVC-OH; disulfide 1-20; N-terminus and C-terminus assumed) | – | 32 | 8 | 32 | 8 |
| CC[C@H](C)[C@@H]1NC(=O)[C@H](CCCCN)NC(=O)[C@H](CC(C)C)NC(=O)[C@H](CCCNC(=N)N)NC(=O)CNC(=O)CNC(=O)[C@H](CCCNC(=N)N)NC(=O)[C@H](CC(N)=O)NC(=O)[C@H](CC(N)=O)NC(=O)[C@H](C(C)C)NC(=O)[C@H](CCCNC(=N)N)NC(=O)[C@H](C(C)C)NC(=O)[C@H](CCCNC(=N)N)NC(=O)[C@H](C(C)C)NC(=O)[C@@H](N)CSSC[C@@H](C(=O)O)NC(=O)[C@H](C(C)C)NC(=O)[C@H](CCC(N)=O)NC(=O)[C@H](C(C)C)NC(=O)[C@H](CO)NC1=O [SySA-83] (H-CVRVRVNNRGGRLKISVQVC-OH; disulfide 1-20; N-terminus and C-terminus assumed) | – | 128 | 16 | 128 | 16 |
| CC[C@H](C)[C@@H]1NC(=O)[C@H](CCCNC(=N)N)NC(=O)[C@H](C(C)C)NC(=O)[C@H](CCCNC(=N)N)NC(=O)[C@H](CO)NC(=O)CNC(=O)CNC(=O)[C@H](CC(N)=O)NC(=O)[C@H](CC(N)=O)NC(=O)[C@H](C(C)C)NC(=O)[C@H](CCCNC(=N)N)NC(=O)[C@H]([C@@H](C)CC)NC(=O)[C@H](CCCNC(=N)N)NC(=O)[C@H](CC(C)C)NC(=O)[C@@H](N)CSSC[C@@H](C(=O)O)NC(=O)[C@H](C(C)C)NC(=O)[C@H](CCC(=O)O)NC(=O)[C@H](CC(C)C)NC(=O)[C@H](CO)NC1=O [SyRA-10] (H-CLRIRVNNGGSRVRISLEVC-OH; disulfide 1-20) | >256 | – | – | – | – |
| CC(C)C[C@@H]1NC(=O)CNC(=O)[C@H](CCCNC(=N)N)NC(=O)[C@H](CCCNC(=N)N)NC(=O)[C@H](CCCNC(=N)N)NC(=O)[C@H](CC(N)=O)NC(=O)[C@H](CC(N)=O)NC(=O)[C@H](CC(C)C)NC(=O)[C@H](CCCNC(=N)N)NC(=O)[C@H](C(C)C)NC(=O)[C@H](CCCNC(=N)N)NC(=O)[C@H](C(C)C)NC(=O)[C@@H](N)CSSC[C@@H](C(=O)O)NC(=O)[C@H](C(C)C)NC(=O)[C@H](CCC(N)=O)NC(=O)[C@H](CC(C)C)NC(=O)[C@H]([C@@H](C)O)NC(=O)[C@H](C(C)C)NC(=O)[C@H](CCCCN)NC1=O [SySA-45] (H-CVRVRLNNRRRGLKVTLQVC-OH; disulfide 1-20; N-terminus and C-terminus assumed) | – | 256 | 32 | 256 | 32 |
| CC[C@H](C)[C@@H]1NC(=O)[C@H](CCCNC(=N)N)NC(=O)[C@H](C(C)C)NC(=O)CNC(=O)[C@H](CCCNC(=N)N)NC(=O)CNC(=O)CNC(=O)[C@H](CC(N)=O)NC(=O)[C@H](CC(=O)O)NC(=O)[C@H](CC(C)C)NC(=O)[C@H](CCCNC(=N)N)NC(=O)[C@H]([C@@H](C)CC)NC(=O)[C@H]([C@@H](C)O)NC(=O)[C@H](CC(C)C)NC(=O)[C@@H](N)CSSC[C@@H](C(=O)O)NC(=O)[C@H](C(C)C)NC(=O)[C@H](CCC(N)=O)NC(=O)[C@H](CC(C)C)NC(=O)[C@H](CO)NC1=O [SyRA-5] (H-CLTIRLDNGGRGVRISLQVC-OH; disulfide 1-20) | >256 | – | – | – | – |
| CC[C@H](C)[C@@H]1NC(=O)[C@H](CCCNC(=N)N)NC(=O)[C@H](C(C)C)NC(=O)[C@@H](N)CSSC[C@@H](C(=O)O)NC(=O)[C@H](C(C)C)NC(=O)[C@H](CCC(N)=O)NC(=O)[C@H](CC(C)C)NC(=O)[C@H](CO)NC(=O)[C@H](C(C)C)NC(=O)[C@H](CCCCN)NC(=O)[C@H](CC(C)C)NC(=O)CNC(=O)[C@H](CCCNC(=N)N)NC(=O)[C@H](CCCNC(=N)N)NC(=O)[C@H](CCCNC(=N)N)NC(=O)[C@H](CC(N)=O)NC(=O)[C@H](CC(N)=O)NC(=O)[C@H](CC(C)C)NC(=O)[C@H](CCCNC(=N)N)NC1=O [SySA-40] (H-CVRIRLNNRRRGLKVSLQVC-OH; disulfide 1-20; N-terminus and C-terminus assumed) | – | 32 | 8 | 32 | 8 |
| CC(C)C[C@@H]1NC(=O)[C@H](CCCNC(=N)N)NC(=O)[C@H](C(C)C)NC(=O)[C@H](CCCNC(=N)N)NC(=O)[C@H](CC(C)C)NC(=O)[C@@H](N)CSSC[C@@H](C(=O)O)NC(=O)[C@H](C(C)C)NC(=O)[C@H](CCC(N)=O)NC(=O)[C@H](C(C)C)NC(=O)[C@H](CO)NC(=O)[C@H](C(C)C)NC(=O)[C@H](CCCCN)NC(=O)[C@H](C(C)C)NC(=O)CNC(=O)[C@H](CCCNC(=N)N)NC(=O)[C@H](CCCNC(=N)N)NC(=O)[C@H](CCCNC(=N)N)NC(=O)[C@H](CC(N)=O)NC(=O)[C@H](CC(N)=O)NC1=O [SySA-25] (H-CLRVRLNNRRRGVKVSVQVC-OH; disulfide 1-20; N-terminus and C-terminus assumed) | – | 64 | 8 | 64 | 8 |
| CC(C)C[C@@H]1NC(=O)[C@H](CCCNC(=N)N)NC(=O)[C@H](CCCNC(=N)N)NC(=O)[C@H](CCCNC(=N)N)NC(=O)CNC(=O)[C@H](CC(N)=O)NC(=O)[C@H](CC(N)=O)NC(=O)[C@H](C(C)C)NC(=O)[C@H](CCCNC(=N)N)NC(=O)[C@H](C(C)C)NC(=O)[C@H](CCCNC(=N)N)NC(=O)[C@H](C(C)C)NC(=O)[C@@H](N)CSSC[C@@H](C(=O)O)NC(=O)[C@H](C(C)C)NC(=O)[C@H](CCC(N)=O)NC(=O)[C@H](CC(C)C)NC(=O)[C@H](CO)NC(=O)[C@H](C(C)C)NC(=O)[C@H](CCCCN)NC1=O [SySA-79] (H-CVRVRVNNGRRRLKVSLQVC-OH; disulfide 1-20; N-terminus and C-terminus assumed) | – | 64 | 32 | 64 | 32 |
| CC(C)C[C@@H]1NC(=O)[C@H](CCCNC(=N)N)NC(=O)[C@H](CCCNC(=N)N)NC(=O)[C@H](CCCNC(=N)N)NC(=O)CNC(=O)[C@H](CC(N)=O)NC(=O)[C@H](CC(N)=O)NC(=O)[C@H](CC(C)C)NC(=O)[C@H](CCCNC(=N)N)NC(=O)[C@H](C(C)C)NC(=O)[C@H](CCCNC(=N)N)NC(=O)[C@H](CC(C)C)NC(=O)[C@@H](N)CSSC[C@@H](C(=O)O)NC(=O)[C@H](C(C)C)NC(=O)[C@H](CCC(N)=O)NC(=O)[C@H](CC(C)C)NC(=O)[C@H](CO)NC(=O)[C@H](C(C)C)NC(=O)[C@H](CCCCN)NC1=O [SySA-71] (H-CLRVRLNNGRRRLKVSLQVC-OH; disulfide 1-20; N-terminus and C-terminus assumed) | – | 16 | 32 | 16 | 32 |
